Source: patent publication US20100317850A1 (priority 2008, published 2010)

test system: Aβ42 production; assay: Quantification of Aβ peptide in culture of neurons from rat fetus brain (Aβ ELISA); assay type: cell-based; details: Neuron, 72 h; rat primary neuronal culture (cerebral cortex, embryonic day 18 Wistar rats); medium collected three days after addition of the compound; Aβx-42 ELISA; read-out: Aβ42 production reducing effect IC50
Experimental: Quantification of Aβ Peptide in Culture of Neurons from Rat Fetus Brain
(1) Rat Primary Neuronal Culture
Primary neuronal cultures were prepared from the cerebral cortex of embryonic day 18 Wistar rats (Charles River Japan, Yokohama, Japan). Specifically, the embryos were aseptically removed from pregnant rats under ether anesthesia. The brain was isolated from the embryo and immersed in an ice-cold L-15 medium (such as Invitrogen Corp. Cat #11415-064, Carlsbad, Calif., USA, or SIGMA L1518). The cerebral cortex was collected from the isolated brain under a stereoscopic microscope. The cerebral cortex fragments collected were enzymatically treated in an enzyme solution containing 0.25% trypsin (Invitrogen Corp. Cat #15050-065, Carlsbad, Calif., USA) and 0.01% DNase (Sigma D5025, St. Louis, Mo., USA) at 37° C. for 30 minutes to disperse the cells. Here, the enzymatic reaction was stopped by adding inactivated horse serum to the solution. The enzymatically treated solution was centrifuged at 1,500 rpm for five minutes to remove the supernatant. 5 to 10 mL of a medium was added to the resulting cell mass. Neurobasal medium (Invitrogen Corp. Cat #21103-049, Carlsbad, Calif., USA) supplemented with 2% B27 supplement (Invitrogen Corp. Cat #17504-044, Carlsbad, Calif., USA), 25 μM 2-mercaptoethanol (2-ME, WAKO Cat #139-06861, Osaka, Japan), 0.5 mM L-glutamine (Invitrogen Corp. Cat #25030-081, Carlsbad, Calif., USA), and Antibiotics-Antimycotics (Invitrogen Corp. Cat #15240-062, Carlsbad, Calif., USA) was used as the medium (Neurobasal/B27/2-ME). However, the above Neurobasal medium not supplemented with 2-ME (Neurobasal/B27) was used for the assay. The cells were redispersed by mild pipetting of the cell mass to which the medium was added. The cell dispersion was filtered through a 40-μm nylon mesh (Cell Strainer, Cat #35-2340, Becton Dickinson Labware, Franklin Lakes, N.J., USA) to remove the remaining cell mass, and thus a neuronal cell suspension was obtained. The neuronal cell suspension was diluted with the medium and then plated in a volume of 100 μL/well at an initial cell density of 5×10^5 cells/cm^2 in a 96-well polystyrene culture plate pre-coated with poly-L or D-lysine (Falcon Cat #35-3075, Becton Dickinson Labware, Franklin Lakes, N.J., USA coated with poly-L-lysine using the method shown below, or BIOCOAT™ cell environments Poly-D-lysine cell ware 96-well plate, Cat #35-6461, Becton Dickinson Labware, Franklin Lakes, N.J., USA). Poly-L-lysine coating was carried out as follows. 100 μg/mL of a poly-L-lysine (SIGMA P2636, St. Louis, Mo., USA) solution was aseptically prepared with a 0.15 M borate buffer (pH 8.5). […] of the solution was added to the 96-well polystyrene culture plate and incubated at room temperature for one or more hours or at 4° C. overnight or longer. Thereafter, the coated 96-well polystyrene culture plate was washed with sterile water four or more times, and then dried or rinsed with, for example, sterile PBS or medium, and used for cell plating. The plated cells were cultured in the culture plate at 37° C. in 5% CO2-95% air for one day. Then, the total amount of the medium was replaced with a fresh Neurobasal™/B27/2-ME medium, and then the cells were cultured for further three days.
The drug was added to the culture plate on Day 4 of culture as follows. The total amount of the medium was removed from the wells, and 180 μL/well of Neurobasal medium not containing 2-ME and containing 2% B-27 (Neurobasal/B27) was added thereto. A solution of the test compound in dimethyl sulfoxide (hereinafter abbreviated as DMSO) was diluted with Neurobasal/B27 to a concentration 10-fold higher than the final concentration. 20 μL/well of the dilution was added to and sufficiently mixed with the medium. The final DMSO concentration was 1% or less. Only DMSO was added to the control group.
The cells were cultured for three days after addition of the compound, and the total amount of the medium was collected. […]

Compared with `NC1=N[C@@]2(c3cc(NC(=O)c4ccc(F)cn4)ccc3F)CCC[C@H]2CS1` (relative stereo) [Example 9, N-[3-((4aR*,7aS*)-2-amino-4a,5,6,7-tetrahydro-4H-cyclopenta[d][1,3]thiazin-7a-yl)-4-fluorophenyl]-5-fluoropyridine-2-carboxamide], `NC1=N[C@@]2(c3cc(NC(=O)c4ccc(OCF)cn4)ccc3F)CCC[C@H]2CS1` (relative stereo) [Example 23, N-[3-((4aR*,7aS*)-2-amino-4a,5,6,7-tetrahydro-4H-cyclopenta[d][1,3]thiazin-7a-yl)-4-fluorophenyl]-5-fluoromethoxypyridine-2-carboxamide] is 2.8-fold lower in IC50: 28 nM for the first, 10 nM for the second.

Compared with `N#Cc1ccc(C(=O)Nc2ccc(F)c([C@]34CCCC[C@H]3CSC(N)=N4)c2)nc1` (relative stereo) [Example 19, N-[3-((4aR*,8aS*)-2-amino-4,4a,5,6,7,8-hexahydrobenzo[d][1,3]thiazin-8a-yl)-4-fluorophenyl]-5-cyanopyridine-2-carboxamide], `N#Cc1ccc(C(=O)Nc2ccc(F)c([C@]34CCCCC[C@H]3CSC(N)=N4)c2)nc1` (relative stereo) [Example 33, (+)-N-[3-((4aR*,9aS*)-2-amino-4a,5,6,7,8,9-hexahydro-4H-cyclohepta[d][1,3]thiazin-9a-yl)-4-fluorophenyl]-5-cyanopyridine-2-carboxamide] is 4.5-fold lower in IC50: 45 nM for the first, 10 nM for the second. The second is the more potent here.

First: NC1=N[C@@]2(c3cc(NC(=O)c4cnc(OCF)cn4)ccc3F)CCC[C@H]2CS1 (relative stereo) [Example 21, N-[3-((4aR*,7aS*)-2-amino-4a,5,6,7-tetrahydro-4H-cyclopenta[d][1,3]thiazin-7a-yl)-4-fluorophenyl]-5-fluoromethoxypyrazine-2-carboxamide]
Second: CC[C@H]1OC[C@]2(c3cc(NC(=O)c4cnc(OCF)cn4)ccc3F)N=C(N)SC[C@H]12 (relative stereo) [Example 52, N-[3-((4aS*, 5R*,7aS*)-2-amino-5-ethyl-4a,5-dihydro-4H-furo[3,4-d][1,3]thiazin-7a-yl)-4-fluorophenyl]-5-fluoromethoxypyrazine-2-carboxamide]
The IC50 of the first is 6.5-fold higher: 13 nM for the first, 2 nM for the second.

Compared with `N#Cc1ccc(C(=O)Nc2ccc(F)c([C@]34COC[C@H]3CSC(N)=N4)c2)nc1` (relative stereo) [Example 24, N-[3-((4aS*,7aS*)-2-amino-4a,5-dihydro-4H-furo[3,4-d][1,3]thiazin-7a-yl)-4-fluorophenyl]-5-cyanopyridine-2-carboxamide], `NC1=N[C@@]2(c3cc(NC(=O)c4ccc(Cl)cn4)ccc3F)COC[C@H]2CS1` (relative stereo) [Example 26, N-[3-((4aS*,7aS*)-2-amino-4a,5-dihydro-4H-furo[3,4-d][1,3]thiazin-7a-yl)-4-fluorophenyl]-5-chloropyridine-2-carboxamide] is 1.6-fold higher in IC50: 4.3 nM for the first, 6.9 nM for the second. The first is the more potent here.

Going from `NC1=N[C@@]2(c3cc(NC(=O)c4cnc(OC(F)F)cn4)ccc3F)COC[C@H]2CS1` (relative stereo) [Example 25, N-[3-((4aS*,7aS*)-2-amino-4a,5-dihydro-4H-furo[3,4-d][1,3]thiazin-7a-yl)-4-fluorophenyl]-5-difluoromethoxypyrazine-2-carboxamide] to `NC1=N[C@@]2(c3cc(NC(=O)c4cnc(OC(F)F)cn4)ccc3F)CCOC[C@H]2CS1` (relative stereo) [Example 29, N-[3-((4aS*,8aS*)-2-amino-4a,5,7,8-tetrahydro-4H-6-oxa-3-thia-1-azanaphthalen-8a-yl)-4-fluorophenyl]-5-difluoromethoxypyrazine-2-carboxamide], the IC50 falls from 6.1 nM to 4 nM (1.5-fold).

Going from `NC1=N[C@@]2(c3cc(NC(=O)c4ccc(Cl)cn4)ccc3F)CCOC[C@H]2CS1` (relative stereo) [Example 30, N-[3-((4aS*,8aS*)-2-amino-4a,5,7,8-tetrahydro-4H-6-oxa-3-thia-1-azanaphthalen-8a-yl)-4-fluorophenyl]-5-chloropyridine-2-carboxamide] to `C[C@H]1OC[C@]2(c3cc(NC(=O)c4ccc(Cl)cn4)ccc3F)N=C(N)SC[C@H]12` (relative stereo) [Example 56, N-[3-((4aS*,5R*,7aS*)-2-amino-5-meth 1-4a,5-dihydro-4H-furo[3,4-d][1,3]thiazin-7a-yl)-4-fluorophenyl]-5-chloropyridine-2-carboxamide], the IC50 falls from 11 nM to 3 nM (3.7-fold).

First: CO[C@H]1C[C@H]2CSC(N)=N[C@@]2(c2cc(NC(=O)c3ccc(C#N)cn3)ccc2F)C1 (relative stereo) [Example 31, (+)-N-[3-((4aR*,6S*,7aS*)-2-amino-6-methoxy-4a,5,6,7-tetrahydro-4H-cyclopenta[d][1,3]thiazin-7a-yl)-4-fluorophenyl]-5-cyanopyridine-2-carboxamide]
Second: CO[C@@H]1C[C@H]2CSC(N)=N[C@@]2(c2cc(NC(=O)c3ccc(C#N)cn3)ccc2F)C1 (relative stereo) [Example 32, (+)-N-[3-((4aR*,6R*,7aS*)-2-amino-6-methoxy-4a,5,6,7-tetrahydro-4H-cyclopenta[d][1,3]thiazin-7a-yl)-4-fluorophenyl]-5-cyanopyridine-2-carboxamide]
The IC50 of the first is 3.6-fold higher: 4 nM for the first, 1.1 nM for the second. The second is the more potent here.

Compared with `CC[C@H]1OC[C@]2(c3cc(NC(=O)c4ccc(C#N)cn4)ccc3F)N=C(N)SC[C@H]12` (relative stereo) [Example 49, N-[3-((4aS*,5R*,7aS*)-2-amino-5-ethyl-4a,5-dihydro-4H-furo[3,4-d][1,3]thiazin-7a-yl)-4-fluorophenyl]-5-cyanopyridine-2-carboxamide], `C[C@H]1OC[C@]2(c3cc(NC(=O)c4ccc(C#N)cn4)ccc3F)N=C(N)SC[C@H]12` (relative stereo) [Example 54, N-[3-((4aS*,5R*,7aS*)-2-amino-5-methyl-4,5-dihydro-4H-furo[3,4-d][1,3]thiazin-7a-yl-4-fluorophenyl]-5-cyanopyridine-2-carboxamide] is 2.1-fold higher in IC50: 0.8 nM for the first, 1.7 nM for the second. The first is the more potent here.

`CC[C@H]1OC[C@]2(c3cc(NC(=O)c4cnc(OC(F)F)cn4)ccc3F)N=C(N)SC[C@H]12` (relative stereo) [Example 50, N-[3-((4aS*,5R*,7aS*)-2-amino-5-ethyl-4a,5-dihydro-4H-furo[3,4-d][1,3]thiazin-7a-yl)-4-fluorophenyl]-5-difluoromethoxypyrazine-2-carboxamide] and `C[C@H]1OC[C@]2(c3cc(NC(=O)c4cnc(OC(F)F)cn4)ccc3F)N=C(N)SC[C@H]12` (relative stereo) [Example 55, N-[3-((4aS*,5R*,7aS*)-2-amino-5-methyl-4a,5-dihydro-4H-furo[3,4-d][1,3]thiazin-7a-yl)-4-fluorophenyl]-5-difluoromethoxypyrazine-2-carboxamide] are within 1.5-fold of each other in IC50: 0.9 nM for the first, 1.1 nM for the second.

`CC[C@H]1OC[C@]2(c3cc(NC(=O)c4ccc(Cl)cn4)ccc3F)N=C(N)SC[C@H]12` (relative stereo) [Example 51, N-[3-((4aS*,5R*,7aS*)-2-amino-5-ethyl-4a,5-dihydro-4H-furo[3,4-d][1,3]thiazin-7a-yl)-4-fluorophenyl]-5-chloropyridine-2-carboxamide] and `CC[C@H]1OC[C@]2(c3cc(NC(=O)c4cnc(C(F)F)cn4)ccc3F)N=C(N)SC[C@H]12` (relative stereo) [Example 53, N-[3-((4aS*,5R*,7aS*)-2-amino-5-ethyl-4a,5-dihydro-4H-furo[3,4-d][1,3]thiazin-7a-yl)-4-fluorophenyl]-5-difluoromethylpyrazine-2-carboxamide] are within 1.5-fold of each other in IC50: 1.6 nM for the first, 2 nM for the second.
